Reference: ChEMBL document CHEMBL2073758, “Agmatine is efficiently transported by non-neuronal monoamine transporters extraneuronal monoamine transporter (EMT) and organic cation transporter 2 (OCT2)” (J Pharmacol Exp Ther, 2003)

Tests used:
[1] = molecular target: T1, Solute carrier family 22 member 1 (Homo sapiens, UniProt O15245); assay: (§1) TP_TRANSPORTER: uptake in OCT1-expressing 293 cells; format: functional, cell-based; conditions: hek293
T1 sequence (O15245 whole entry): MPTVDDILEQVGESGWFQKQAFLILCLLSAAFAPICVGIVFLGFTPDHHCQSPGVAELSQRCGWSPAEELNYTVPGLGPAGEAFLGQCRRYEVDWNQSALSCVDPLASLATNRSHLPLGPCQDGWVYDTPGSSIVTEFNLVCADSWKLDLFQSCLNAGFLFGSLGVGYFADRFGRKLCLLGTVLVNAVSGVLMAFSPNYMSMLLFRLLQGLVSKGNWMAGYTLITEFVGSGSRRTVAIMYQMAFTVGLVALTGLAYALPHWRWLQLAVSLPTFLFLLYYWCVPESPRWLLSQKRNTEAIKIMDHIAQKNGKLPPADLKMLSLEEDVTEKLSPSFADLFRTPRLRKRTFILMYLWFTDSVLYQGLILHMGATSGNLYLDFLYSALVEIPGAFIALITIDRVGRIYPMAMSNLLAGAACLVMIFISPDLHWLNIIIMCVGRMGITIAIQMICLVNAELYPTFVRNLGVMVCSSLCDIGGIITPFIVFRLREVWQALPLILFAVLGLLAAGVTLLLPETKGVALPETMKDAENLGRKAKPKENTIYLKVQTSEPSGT

[2] = molecular target: T2, Solute carrier family 22 member 1 (Rattus norvegicus, UniProt Q63089); assay: as §1; format: functional, cell-based; conditions: human, hek293
T2 sequence (Q63089 whole entry): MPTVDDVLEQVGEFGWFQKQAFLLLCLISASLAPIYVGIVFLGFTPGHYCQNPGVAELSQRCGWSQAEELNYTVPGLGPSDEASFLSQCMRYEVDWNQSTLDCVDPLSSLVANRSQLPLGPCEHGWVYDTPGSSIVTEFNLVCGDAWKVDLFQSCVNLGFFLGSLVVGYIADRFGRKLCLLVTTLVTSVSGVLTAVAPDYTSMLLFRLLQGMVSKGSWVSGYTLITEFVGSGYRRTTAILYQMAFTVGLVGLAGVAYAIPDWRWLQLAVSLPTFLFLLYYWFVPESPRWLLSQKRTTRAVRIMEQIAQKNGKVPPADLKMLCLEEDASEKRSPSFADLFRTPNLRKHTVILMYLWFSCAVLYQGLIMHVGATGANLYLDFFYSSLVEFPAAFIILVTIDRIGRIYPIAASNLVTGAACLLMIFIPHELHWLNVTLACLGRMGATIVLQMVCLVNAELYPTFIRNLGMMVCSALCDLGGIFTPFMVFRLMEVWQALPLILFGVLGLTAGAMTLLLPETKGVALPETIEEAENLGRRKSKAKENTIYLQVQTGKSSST

[3] = molecular target: T1, Solute carrier family 22 member 1; assay: (§2) TP_TRANSPORTER: inhibition of uptake of 0.1 uM MPP+ in OCT1-expressing 293 cells; format: functional, cell-based, HEK293
[4] = molecular target: T2, Solute carrier family 22 member 1; assay: as §2; format: functional, cell-based, HEK293
[5] = molecular target: T3, Solute carrier family 22 member 2 (Homo sapiens, UniProt O15244); assay: (§3) TP_TRANSPORTER: uptake in OCT2-expressing 293 cells; format: functional, cell-based; conditions: hek293
T3 sequence (O15244 whole entry): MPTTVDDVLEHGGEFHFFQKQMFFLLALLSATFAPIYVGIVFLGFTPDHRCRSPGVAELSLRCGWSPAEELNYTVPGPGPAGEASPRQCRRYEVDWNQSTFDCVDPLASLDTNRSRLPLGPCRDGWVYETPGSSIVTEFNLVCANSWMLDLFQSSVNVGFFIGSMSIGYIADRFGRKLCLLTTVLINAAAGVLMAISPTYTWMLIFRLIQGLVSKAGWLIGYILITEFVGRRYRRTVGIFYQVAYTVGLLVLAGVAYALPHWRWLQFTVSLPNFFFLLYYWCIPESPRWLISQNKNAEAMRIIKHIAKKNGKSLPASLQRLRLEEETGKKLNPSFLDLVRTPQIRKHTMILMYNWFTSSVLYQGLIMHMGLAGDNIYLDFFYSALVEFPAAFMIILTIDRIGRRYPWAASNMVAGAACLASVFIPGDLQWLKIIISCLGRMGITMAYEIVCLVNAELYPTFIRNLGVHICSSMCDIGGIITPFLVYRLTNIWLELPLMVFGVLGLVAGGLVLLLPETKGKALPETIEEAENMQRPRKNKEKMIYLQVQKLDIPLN

[6] = molecular target: T4, Solute carrier family 22 member 2 (Rattus norvegicus, UniProt Q9R0W2); assay: as §3; format: functional, cell-based; conditions: human, hek293
T4 sequence (Q9R0W2 whole entry): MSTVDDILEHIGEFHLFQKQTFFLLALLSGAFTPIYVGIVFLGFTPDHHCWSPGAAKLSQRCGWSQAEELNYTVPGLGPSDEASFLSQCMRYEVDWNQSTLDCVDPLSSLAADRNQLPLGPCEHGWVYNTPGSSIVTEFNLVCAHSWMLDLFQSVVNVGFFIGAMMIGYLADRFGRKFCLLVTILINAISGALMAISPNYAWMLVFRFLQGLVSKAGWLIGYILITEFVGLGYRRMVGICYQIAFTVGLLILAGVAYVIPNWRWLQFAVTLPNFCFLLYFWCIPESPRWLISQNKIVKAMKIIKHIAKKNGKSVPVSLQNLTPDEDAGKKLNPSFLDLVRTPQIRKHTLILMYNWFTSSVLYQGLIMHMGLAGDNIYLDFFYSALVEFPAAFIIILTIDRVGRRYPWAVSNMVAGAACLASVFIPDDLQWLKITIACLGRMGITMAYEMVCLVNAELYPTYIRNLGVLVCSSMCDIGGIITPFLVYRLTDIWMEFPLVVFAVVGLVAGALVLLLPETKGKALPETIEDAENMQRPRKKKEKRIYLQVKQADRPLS

[7] = molecular target: T5, Solute carrier family 22 member 3 (Rattus norvegicus, UniProt O88446); assay: (§4) TP_TRANSPORTER: uptake in OCT3-expressing 293 cells; format: functional, cell-based; conditions: human, hek293
T5 sequence (O88446 whole entry): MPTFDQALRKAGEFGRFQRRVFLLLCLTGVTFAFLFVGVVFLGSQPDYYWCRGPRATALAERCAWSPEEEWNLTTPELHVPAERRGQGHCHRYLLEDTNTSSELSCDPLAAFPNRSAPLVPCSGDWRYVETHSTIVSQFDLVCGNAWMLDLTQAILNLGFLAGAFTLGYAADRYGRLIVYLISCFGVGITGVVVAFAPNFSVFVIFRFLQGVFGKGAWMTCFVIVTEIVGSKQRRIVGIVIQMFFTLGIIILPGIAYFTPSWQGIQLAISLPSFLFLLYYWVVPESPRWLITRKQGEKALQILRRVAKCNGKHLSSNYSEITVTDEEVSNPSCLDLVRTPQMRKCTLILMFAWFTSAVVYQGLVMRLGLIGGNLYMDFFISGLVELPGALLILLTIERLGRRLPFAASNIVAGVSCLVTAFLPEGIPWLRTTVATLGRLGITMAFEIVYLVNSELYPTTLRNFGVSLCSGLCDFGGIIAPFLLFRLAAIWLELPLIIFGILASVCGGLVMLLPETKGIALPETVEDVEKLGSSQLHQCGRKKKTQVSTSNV

[8] = substrate: N=C(N)NCCCCN; assay: as §3; format: functional, cell-based, HEK293
[9] = substrate: N=C(N)NCCCCN; assay: as §4; format: functional, cell-based, HEK293

| Molecule | Activity [1] | Activity [2] | Km [8] [µM] | Km [9] [µM] | other results |
| --- | --- | --- | --- | --- | --- |
| N=C(N)NCCCCN [AGMATINE] | substrate [] | substrate [] |  |  | Ki [3]: 24 mM; Ki [4]: 8.6 mM |
| C[n+]1ccc(-c2ccccc2)cc1 | 32 µM | substrate [] |  |  | Activity [5]: 7.8 µM; Activity [6]: substrate []; Activity [7]: substrate [] |
| Solute carrier family 22 member 2 (Homo sapiens) (protein) MPTTVDDVLEHGGEFHFFQKQMFFLLALLSATFAPIYVGIVFLGFTPDHRCRSPGVAELSLRCGWSPAEELNYTVPGPGPAGEASPRQCRRYEVDWNQSTFDCVDPLASLDTNRSRLPLGPCRDGWVYETPGSSIVTEFNLVCANSWMLDLFQSSVNVGFFIGSMSIGYIADRFGRKLCLLTTVLINAAAGVLMAISPTYTWMLIFRLIQGLVSKAGWLIGYILITEFVGRRYRRTVGIFYQVAYTVGLLVLAGVAYALPHWRWLQFTVSLPNFFFLLYYWCIPESPRWLISQNKNAEAMRIIKHIAKKNGKSLPASLQRLRLEEETGKKLNPSFLDLVRTPQIRKHTMILMYNWFTSSVLYQGLIMHMGLAGDNIYLDFFYSALVEFPAAFMIILTIDRIGRRYPWAASNMVAGAACLASVFIPGDLQWLKIIISCLGRMGITMAYEIVCLVNAELYPTFIRNLGVHICSSMCDIGGIITPFLVYRLTNIWLELPLMVFGVLGLVAGGLVLLLPETKGKALPETIEEAENMQRPRKNKEKMIYLQVQKLDIPLN |  |  | 1400 |  |  |
| Solute carrier family 22 member 3 (Homo sapiens) (protein) MPSFDEALQRVGEFGRFQRRVFLLLCLTGVTFAFLFVGVVFLGTQPDHYWCRGPSAAALAERCGWSPEEEWNRTAPASRGPEPPERRGRCQRYLLEAANDSASATSALSCADPLAAFPNRSAPLVPCRGGWRYAQAHSTIVSEFDLVCVNAWMLDLTQAILNLGFLTGAFTLGYAADRYGRIVIYLLSCLGVGVTGVVVAFAPNFPVFVIFRFLQGVFGKGTWMTCYVIVTEIVGSKQRRIVGIVIQMFFTLGIIILPGIAYFIPNWQGIQLAITLPSFLFLLYYWVVPESPRWLITRKKGDKALQILRRIAKCNGKYLSSNYSEITVTDEEVSNPSFLDLVRTPQMRKCTLILMFAWFTSAVVYQGLVMRLGIIGGNLYIDFFISGVVELPGALLILLTIERLGRRLPFAASNIVAGVACLVTAFLPEGIAWLRTTVATLGRLGITMAFEIVYLVNSELYPTTLRNFGVSLCSGLCDFGGIIAPFLLFRLAAVWLELPLIIFGILASICGGLVMLLPETKGIALPETVDDVEKLGSPHSCKCGRNKKTPVSRSHL |  |  |  | 2500 |  |
| Solute carrier family 22 member 3 (Rattus norvegicus) (protein) MPTFDQALRKAGEFGRFQRRVFLLLCLTGVTFAFLFVGVVFLGSQPDYYWCRGPRATALAERCAWSPEEEWNLTTPELHVPAERRGQGHCHRYLLEDTNTSSELSCDPLAAFPNRSAPLVPCSGDWRYVETHSTIVSQFDLVCGNAWMLDLTQAILNLGFLAGAFTLGYAADRYGRLIVYLISCFGVGITGVVVAFAPNFSVFVIFRFLQGVFGKGAWMTCFVIVTEIVGSKQRRIVGIVIQMFFTLGIIILPGIAYFTPSWQGIQLAISLPSFLFLLYYWVVPESPRWLITRKQGEKALQILRRVAKCNGKHLSSNYSEITVTDEEVSNPSCLDLVRTPQMRKCTLILMFAWFTSAVVYQGLVMRLGLIGGNLYMDFFISGLVELPGALLILLTIERLGRRLPFAASNIVAGVSCLVTAFLPEGIPWLRTTVATLGRLGITMAFEIVYLVNSELYPTTLRNFGVSLCSGLCDFGGIIAPFLLFRLAAIWLELPLIIFGILASVCGGLVMLLPETKGIALPETVEDVEKLGSSQLHQCGRKKKTQVSTSNV |  |  |  | 900 |  |
| Solute carrier family 22 member 2 (Rattus norvegicus) (protein) MSTVDDILEHIGEFHLFQKQTFFLLALLSGAFTPIYVGIVFLGFTPDHHCWSPGAAKLSQRCGWSQAEELNYTVPGLGPSDEASFLSQCMRYEVDWNQSTLDCVDPLSSLAADRNQLPLGPCEHGWVYNTPGSSIVTEFNLVCAHSWMLDLFQSVVNVGFFIGAMMIGYLADRFGRKFCLLVTILINAISGALMAISPNYAWMLVFRFLQGLVSKAGWLIGYILITEFVGLGYRRMVGICYQIAFTVGLLILAGVAYVIPNWRWLQFAVTLPNFCFLLYFWCIPESPRWLISQNKIVKAMKIIKHIAKKNGKSVPVSLQNLTPDEDAGKKLNPSFLDLVRTPQIRKHTLILMYNWFTSSVLYQGLIMHMGLAGDNIYLDFFYSALVEFPAAFIIILTIDRVGRRYPWAVSNMVAGAACLASVFIPDDLQWLKITIACLGRMGITMAYEMVCLVNAELYPTYIRNLGVLVCSSMCDIGGIITPFLVYRLTDIWMEFPLVVFAVVGLVAGALVLLLPETKGKALPETIEDAENMQRPRKKKEKRIYLQVKQADRPLS |  |  | 950 |  |  |
